Like-named read-outs stand apart in the source and are kept apart here.
Tests used:
[1] = target: T1, low affinity zinc uptake system (Zrt2p) (Saccharomyces cerevisiae, UniProt Q12436); assay type: cell-based; settings: for effect on zinc uptake by the low affinity system / uptake rate of radioactive zinc, % of the control rate: 200 μM added metal, zrt1 mutant cells; for inhibition of pMC4- and pOE2-dependent zinc uptake activity: ZRT2 overexpressing zrt1 cells; for zinc accumulation: 30° C., 10 μM 65Zn
T1 construct: endogenous in cells; host or cells: S. cerevisiae ZHY1 (zrt1::LEU2) and zinc-replete DY1457; some values come from ZHY1 carrying pMC4 (multicopy genomic ZRT2) or pOE2 (ZRT2 ORF under GAL1)
T1 sequence (Q12436 whole entry): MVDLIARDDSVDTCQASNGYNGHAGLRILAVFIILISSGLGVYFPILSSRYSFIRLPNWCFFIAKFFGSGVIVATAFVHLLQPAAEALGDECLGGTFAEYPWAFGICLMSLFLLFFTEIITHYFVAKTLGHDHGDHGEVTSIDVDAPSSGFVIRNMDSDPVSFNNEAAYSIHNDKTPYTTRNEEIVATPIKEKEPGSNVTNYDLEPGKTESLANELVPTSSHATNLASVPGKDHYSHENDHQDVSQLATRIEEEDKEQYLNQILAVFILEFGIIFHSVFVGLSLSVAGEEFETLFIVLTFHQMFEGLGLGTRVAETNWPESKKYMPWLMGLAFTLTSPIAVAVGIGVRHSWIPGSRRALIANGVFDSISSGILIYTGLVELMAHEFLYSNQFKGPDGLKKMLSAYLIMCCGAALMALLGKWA
Protocol: Zinc uptake assays were performed as described previously for iron uptake (Eide et al. J. Biol. Chem. 267:20774-20781) except that ^65ZnCl2 (Amersham Corp., Arlington Heights, Ill.) and LZM-EDTA were substituted for ^59FeCl3 and LIM-EDTA. Cells were incubated at 30° C. with ^65Zn for five minutes, filtered, and washed with 10 ml ice-cold SSW. Cell-associated radioactivity was measured by liquid scintillation. Kinetic values were derived using KinetAsyst software (IntelliKinetics, Princeton, N.J.). Zinc accumulation was measured in cells grown in LZM medium supplemented with […] ^65Zn plus nonradioactive zinc to the indicated final concentration. Aliquots (0.5 ml) were filtered, washed with 10 ml ice-cold SSW, and counted by liquid scintillation. b-galactosidase activity was assayed as described by Guarente (Guarante, L. (1983) Methods Enzymol101:181-191).
Zinc uptake assays were performed as described previously for iron uptake (Eide et al. (1992) J. Biol. Chem. 267:20774-20781) except that ^65ZnCl2 (Amersham) and LZM-EDTA were substituted for ^59FeCI3 and LIM-EDTA, respectively. Cells were incubated for 5 minutes in LZM-EDTA plus the indicated concentration of ^65Zn, collected on glass fiber filters (Schleicher and Schuell), washed with 10 ml ice-cold SSW (1 mM EDTA, 20 mM trisodium citrate, 1 mM KH2PO4, 1 mM CaCl2, 5 mM MgSO4, 1 mM NaCl pH 4.2), and cell-associated radioactivity was measured by liquid scintillation counting. Cells were starved for glucose by incubating them in LZM-EDTA prepared without glucose for one hour at 30° C. prior to assay. Michaelis-Menten kinetic values were determined using […] software (Intellikinetics, Princeton, N.J.). Stock solutions of the chloride salts of Co, Cu, Mg, Mn, and Ni were prepared in distilled water at a concentration of 100 mM. The nonradioactive ZnCl2 stock was prepared at 100 mM in 0.02 N HCl and the FeCl3 stock was prepared at 50 mM in 0.1 N HCl. The statistical significance of the differences of values relative to controls was determined with one-way analysis of variance (ANOVA) followed by a Dunnett multiple comparison test. β-galactosidase activity was assayed in cells harvested at an OD600 of 0.5-2.0 as described by Guarente (Guarente, L. (1983) Methods Enzymol. 101:181-191) and activity is expressed as the change in absorbance at 420 nm×1000 divided by (min×ml of culture used×OD600 of the culture). Cell-associated zinc was measured in parallel cultures supplemented with tracer amounts of ^65Zn (10 μM) and nonradioactive zinc to the indicated final concentration. Aliquots (0.5 ml) were filtered, washed with 10 ml ice-cold SSW, and radioactivity measured by liquid scintillation.
To determine if ZRT1 plays a role in zinc uptake, the biochemical properties of this process in wild type cells were first characterized. […] Wild type (FIG. 10, DY1457, squares) and zrt1 mutant (FIG. 10, ZHY1, circles) cells were grown to exponential phase in zinc-limited (open symbols, FIG. 10) and zinc-replete (FIG. 10, closed symbols) media and assayed for zinc uptake rate over a range ZnSO4 concentrations. Zinc-limited media was LZM+10 μM zinc for the wild type and LZM+500 μM zinc for the mutant. Zinc-replete conditions were LZM+1000 μM for both strains. ZHY1(pOE1) cells (FIG. 10, triangles) were grown in zinc-replete SDgal medium.
Mutant zrt1 (ZHY1) cells were grown in LZM supplemented with 1 mM ZnCl2. Cells were incubated with 10 μM ^65Zn for the indicated times at either […]

IRT1 = target: T2, IRT1 (Arabidopsis thaliana, UniProt Q38856); experiment: 55Fe uptake in fet3 fet4 yeast expressing IRT1; assay type: cell-based; settings: metal at 100-fold excess
T2 construct: contain a single 1017 bp open reading frame capable of encoding a polypeptide of 339 amino acids; expressed in transfected cells; host or cells: S. cerevisiae fet3 fet4 strain DEY1453 carrying pIRT-1 (pFL61 library vector, phosphoglycerate kinase promoter)
T2 sequence (Q38856 9-347 limits assumed): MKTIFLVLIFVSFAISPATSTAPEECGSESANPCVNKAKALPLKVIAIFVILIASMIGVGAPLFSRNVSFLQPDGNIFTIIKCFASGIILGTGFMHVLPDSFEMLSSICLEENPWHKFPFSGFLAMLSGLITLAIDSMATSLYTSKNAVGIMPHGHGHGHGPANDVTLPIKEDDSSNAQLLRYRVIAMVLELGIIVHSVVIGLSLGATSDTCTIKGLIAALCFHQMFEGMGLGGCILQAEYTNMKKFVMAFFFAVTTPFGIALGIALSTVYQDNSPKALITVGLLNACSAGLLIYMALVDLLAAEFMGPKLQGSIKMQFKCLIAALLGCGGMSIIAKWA

[2] = zrt1 cells grown in SD glucose supplemented with 2 mM ZnCl2

## [Cl-].[Cl-].[Co+2] [Co]
[1]; 20 μM 65Zn, five minutes
  effect on zinc uptake by the low affinity system: did not diminish zinc uptake
IRT1
  inhibition of IRT1-dependent iron uptake: inhibit IRT1-dependent iron uptake

## [Cl][Cu][Cl] [Cu]
[1]; 20 μM 65Zn, five minutes
  uptake rate of radioactive zinc, % of the control rate: 32%
[1]
  inhibition of pMC4- and pOE2-dependent zinc uptake activity: inhibited

## [Fe+2] [Fe(II)]
[1]; 20 μM 65Zn, five minutes
  uptake rate of radioactive zinc, % of the control rate: 79%
[1]
  inhibition of pMC4- and pOE2-dependent zinc uptake activity: inhibited

## [Cl][Fe]([Cl])[Cl] [Fe(III)]
[1]; 20 μM 65Zn, five minutes
  effect on zinc uptake by the low affinity system: did not diminish zinc uptake

## [Cl][Mn][Cl] [Mn]
[1]; 20 μM 65Zn, five minutes
  effect on zinc uptake by the low affinity system: did not diminish zinc uptake
IRT1
  inhibition of IRT1-dependent iron uptake: inhibit IRT1-dependent iron uptake

## [Cl][Ni][Cl] [Ni]
[1]; 20 μM 65Zn, five minutes
  effect on zinc uptake by the low affinity system: did not diminish zinc uptake

## [Zn+2] [zinc]
[1]; 20 μM 65Zn, five minutes, zrt1 (ZHY1) grown in LZM + 1 mM ZnCl2, no other metal
  control rate of zinc uptake: 0.9 pmol/min/10^6 cells
[1]; 20 μM 65Zn, five minutes
  uptake rate of radioactive zinc, % of the control rate: approximately 10%
[1]; ZHY1 (zrt1) with pMC4 vs YEp24, SD glucose, all 65Zn concentrations tested
  rate of zinc uptake of pMC4 transformants relative to vector control: approximately 15 fold
[1]; ZHY1 (zrt1) with plasmid pMC4, SD glucose, mean ± SE
  Vmax: 28 ± 1 pmol/min/10^6
[1]; ZHY1 (zrt1) with plasmid pMC4, SD glucose, total zinc, mean ± SE, read-out: Km
  Km: 8 ± 0.4 µM
[1]; ZHY1 (zrt1) with plasmid pOE2 (GAL1-ZRT2), SD galactose, mean ± SE
  Vmax: 17 ± 2 pmol/min/10^6
[1]; ZHY1 (zrt1) with plasmid pOE2 (GAL1-ZRT2), SD galactose, total zinc, mean ± SE, read-out: Km
  Km: 3.6 ± 0.1 µM
[1]; ZHY1 (zrt1) with vector (YEp24, control for pMC4), SD glucose, mean ± SE
  Vmax: 2.2 ± 0.1 pmol/min/10^6
[1]; ZHY1 (zrt1) with vector (YEp24, control for pMC4), SD glucose, total zinc, mean ± SE, read-out: Km
  Km: 9.5 ± 0.8 µM
[1]; ZHY1 (zrt1) with vector (pRS316-GAL1, control for pOE2), SD galactose, mean ± SE
  Vmax: 2.0 ± 0.1 pmol/min/10^6
[1]; ZHY1 (zrt1) with vector (pRS316-GAL1, control for pOE2), SD galactose, total zinc, mean ± SE, read-out: Km
  Km: 10 ± 1 µM
[1]; calculated free zinc, read-out: apparent Km of the low affinity system, free zinc
  Km: ~0.1 µM
[1]; glucose-starved zrt1 cells, five minutes
  zinc accumulation: no detectable zinc accumulation
[1]; total zinc, read-out: apparent Km of the low affinity system
  Km: 10 µM
[1]; wild type, high growth medium [Zn] (LZM + 1.5 mM ZnCl2), mean ± SE
  Vmax: 0.60 ± 0.03 pmol/min/10^6
[1]; wild type, high growth medium [Zn] (LZM + 1.5 mM ZnCl2), total zinc, mean ± SE, read-out: Km
  Km: 15 ± 3 µM
[1]; wild type, zinc-replete cells (LZM+1000 μM), read-out: apparent Km of zinc uptake
  Km: 10 ± 1 µM
[1]; zinc-replete cells
  Vmax of zinc uptake: 2 pmol/min/10^6 cells
[1]; zrt1, high growth medium [Zn], mean ± SE
  Vmax: 0.52 ± 0.04 pmol/min/10^6
[1]; zrt1, high growth medium [Zn], total zinc, mean ± SE, read-out: Km
  Km: 10 ± 1 µM
[1]; [2]
  zinc uptake rate: 0.12 pmol/min/106 cells
  zinc uptake rate relative to untreated cells: 7%
[1]; zrt1 cells grown in zinc-replete SD glucose, assayed at 10, M 65Zn
  zinc uptake rate: 1.7 pmol/min/10^6 cells
[1]; zrt1 cells incubated with glucose, five minutes
  zinc accumulation: 3.7 pmol/10^6 cells
[1]; zrt1 mutant cells grown in zinc-limiting and zinc-replete media
  Vmax of zinc uptake: 1-2 pmol/min/10^6 cells
[1]; zrt1 mutant cells grown in zinc-limiting and zinc-replete media, read-out: apparent Km of zinc uptake
  Km: 10 ± 1 µM
IRT1
  inhibition of IRT1-dependent iron uptake: inhibit IRT1-dependent iron uptake
